Structures can show the parent of a compound that is named as a salt.

Among the data in patent publication US20230087118A1, “IMIDAZO[1,2-a][sequence] DERIVATIVES AND THEIR USE IN THE TREATMENT OF DISEASE” (priority 2019, published 2023) are IC50 values, retold here.

For one assay, the target named is T1, IRAK4 (Homo sapiens, UniProt Q9NWZ3).
T1 sequence (Q9NWZ3 1-460): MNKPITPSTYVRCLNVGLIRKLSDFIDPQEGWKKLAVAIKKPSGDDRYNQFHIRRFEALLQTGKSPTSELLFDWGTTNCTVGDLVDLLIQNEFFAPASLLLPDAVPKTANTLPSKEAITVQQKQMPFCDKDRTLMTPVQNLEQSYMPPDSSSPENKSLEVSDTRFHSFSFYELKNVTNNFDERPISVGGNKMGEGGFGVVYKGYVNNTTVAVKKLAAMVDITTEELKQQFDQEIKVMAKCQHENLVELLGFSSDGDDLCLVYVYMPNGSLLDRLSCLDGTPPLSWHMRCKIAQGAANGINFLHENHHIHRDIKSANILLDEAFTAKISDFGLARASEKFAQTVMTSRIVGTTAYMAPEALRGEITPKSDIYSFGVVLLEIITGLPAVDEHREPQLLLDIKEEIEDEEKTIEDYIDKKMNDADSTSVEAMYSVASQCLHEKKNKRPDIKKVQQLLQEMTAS
Description: biochemical.
Settings: not given
The molecule `CC(Oc1cc2nc(C34COC(C)(C3)C4)cn2cc1C(=O)Nc1cccc(C(F)F)n1)C(F)(F)F` (single isomer, unassigned) [Example 619] came in with an IC50 of 0.0001 µM. With `CC(C)Oc1cc2nc([C@@]34CC[C@@](C)(C3)OC4)cn2cc1C(=O)Nc1cccn(C)c1=O` (single isomer, unassigned) [Example 620], the midpoint of inhibition, the IC50, lay at 0.0006 µM. The same measure, in the same setting: under `CC(C)Oc1cc2nc([C@]34CC[C@](C)(C3)OC4)cn2cc1C(=O)Nc1cccn(C)c1=O` (single isomer, unassigned) [Example 621] stands 0.0014 µM; under `CC(C)Oc1cc2nc([C@@]34CC[C@@](C)(C3)OC4)cn2cc1C(=O)Nc1cccn(C(F)F)c1=O` (single isomer, unassigned) [Example 624], 0.0002 µM; under `CC(C)Oc1cc2nc([C@]34CC[C@](C)(C3)OC4)cn2cc1C(=O)Nc1cccn(C(F)F)c1=O` (single isomer, unassigned) [Example 625], 0.0003 µM. Consider `C[C@@]12CC[C@@](c3cn4cc(C(=O)Nc5cccc(C(F)F)n5)nc(OC5CCC5)c4n3)(CO1)C2` (single isomer, unassigned) [Example 626], for which the IC50 came to 0.0006 µM.

As for `C[C@]12CC[C@](c3cn4cc(C(=O)Nc5cccc(C(F)F)n5)nc(OC5CCC5)c4n3)(CO1)C2` (single isomer, unassigned) [Example 627], the IC50 came out at 0.0004 µM. In turn, `CC(C)Oc1nc2nc([C@@]34CC[C@@](C)(C3)OC4)cn2cc1C(=O)Nc1cccn(C(F)F)c1=O` (single isomer, unassigned) [Example 628] displayed an IC50 of 0.0001 µM. As to `CC(C)Oc1nc2nc([C@]34CC[C@](C)(C3)OC4)cn2cc1C(=O)Nc1cccn(C(F)F)c1=O` (single isomer, unassigned) [Example 629], inhibition was half-maximal at 0.0003 µM (IC50). Same read-out and setting: under `CC(C)Oc1nc2nc([C@@]34CC[C@@](C)(C3)OC4)cn2cc1C(=O)Nc1cnn2cc(F)cnc12` (single isomer, unassigned) [Example 630] stands 0.0003 µM. For `CC(C)Oc1nc2nc([C@]34CC[C@](C)(C3)OC4)cn2cc1C(=O)Nc1cnn2cc(F)cnc12` (single isomer, unassigned) [Example 631], the IC50 amounted to 0.0004 µM. The same measure, in the same setting: under `Cn1ccc(NC(=O)c2cn3cc([C@]45CC[C@](C)(C4)OC5)nc3cc2OC2CCCC2)n1` (single isomer, unassigned) [Example 633] stands 0.0016 µM; under `Cn1ccc(NC(=O)c2cn3cc([C@@]45CC[C@@](C)(C4)OC5)nc3cc2OC2CCCC2)n1` (single isomer, unassigned) [Example 634], 0.0023 µM.

Molecule `Cn1ccc(NC(=O)c2cn3cc([C@@]45CC[C@@](C)(C4)OC5)nc3nc2OC2CCCC2)n1` (single isomer, unassigned) [Example 635] had an IC50 of 0.0026 µM. As to `Cn1ccc(NC(=O)c2cn3cc([C@]45CC[C@](C)(C4)OC5)nc3nc2OC2CCCC2)n1` (single isomer, unassigned) [Example 636], inhibition was half-maximal at 0.0037 µM (IC50). On the same count and under the same terms, then `CCC(C)Oc1nc2nc(C34COC(C)(C3)C4)cn2cc1C(=O)Nc1cnn2cc(C)cnc12` (single isomer, unassigned) [Example 642], with 0.0013 µM.

Take `CCC(C)Oc1nc2nc(C34COC(C)(C3)C4)cn2cc1C(=O)Nc1cnn2cc(C)cnc12` (single isomer, unassigned) [Example 643]: the 50% inhibitory concentration (IC50) is 0.0004 µM. Still for that read-out and setting: then `CCC(C)Oc1nc2nc(C34COC(CF)(C3)C4)cn2cc1C(=O)Nc1cnn2cc(C)cnc12` (single isomer, unassigned) [Example 644], with 0.0012 µM.

For the molecule `CCC(C)Oc1nc2nc(C34COC(CF)(C3)C4)cn2cc1C(=O)Nc1cnn2cc(C)cnc12` (single isomer, unassigned) [Example 645], half-maximal inhibition (IC50) required 0.0005 µM. The molecule `Cc1cnc2c(NC(=O)c3cn4cc([C@]56CO[C@H](CCO5)C6)nc4cc3OC(C)C)cnn2c1` (single isomer, unassigned) [Example 646] came in with an IC50 of 0.0008 µM. `Cc1cnc2c(NC(=O)c3cn4cc([C@]56CO[C@H](CCO5)C6)nc4nc3OC(C)C)cnn2c1` (single isomer, unassigned) [Example 647] yielded an IC50 of 0.0013 µM. `Cn1ccc(NC(=O)c2cn3cc([C@]45CC[C@](C)(C4)OC5)nc3nc2OC2CCC2)n1` (single isomer, unassigned) [Example 648]: it took 0.0045 µM to reach half-maximal inhibition (IC50). As for `CC(C)Oc1nc2nc([C@@]34CC[C@@](C)(C3)OC4)cn2cc1C(=O)Nc1cccn(C)c1=O` (single isomer, unassigned) [Example 652], inhibition was half-maximal at 0.0005 µM (IC50). The same measure, in the same setting: then `CC(C)Oc1nc2nc([C@]34CC[C@](C)(C3)OC4)cn2cc1C(=O)Nc1cccn(C)c1=O` (single isomer, unassigned) [Example 653], with 0.0011 µM; and `C[C@@H](Oc1cc2nc(C34COC(C)(C3)C4)cn2cc1C(=O)Nc1cccc(C(F)F)n1)C1CC1` (single isomer, unassigned) [Example 655], with 0.0004 µM. The same measure, in the same setting: then `C[C@H](Oc1cc2nc(C34COC(C)(C3)C4)cn2cc1C(=O)Nc1cccc(C(F)F)n1)C1CC1` (single isomer, unassigned) [Example 656], with 0.0002 µM; and `Cc1cnc2c(NC(=O)c3cn4cc(C56COC(C)(C5)C6)nc4cc3O[C@H](C)C3CC3)cnn2c1` (single isomer, unassigned) [Example 657], with 0.0009 µM; and `Cc1cnc2c(NC(=O)c3cn4cc(C56COC(C)(C5)C6)nc4cc3O[C@@H](C)C3CC3)cnn2c1` (single isomer, unassigned) [Example 658], with 0.0006 µM. The same measure, in the same setting: then `COc1cc2nc(C34COC(C)(C3)C4)cn2cc1C(=O)Nc1ccccn1` [Example 1, 7-Methoxy-2-(1-methyl-2-oxabicyclo[2.1.1]hexan-4-yl)-N-(2-pyridyl)imidazo[1,2-a]pyridine-6-carboxamide], with 0.0298 µM; and `COc1cc2nc(C34CC(C)(CO3)C4)cn2cc1C(=O)Nc1ccccn1` [Example 4], with 0.235 µM. With `COc1cc2nc(C3CC34CCCCO4)cn2cc1C(=O)Nc1ccccn1` (centres unmarked) [Example 6], the IC50 worked out at 0.151 µM. This IC50 lies about 1.6-fold lower than the previous one. The same measure, in the same setting: under `COc1cccc(NC(=O)c2cn3cc(C45COC(C)(C4)C5)nc3cc2OC)n1` [Example 31] stands 0.015 µM; under `CCOc1cc(C(=O)Nc2cccc(C(F)F)n2)cn2cc(C3CCCOC3)nc12` (centres unmarked) [Example 52, N-(6-(difluoromethyl)pyridin-2-yl)-8-ethoxy-2-(tetrahydro-2H-pyran-3-yl)imidazo[1,2-a]pyridine-6-carboxamide], 0.0075 µM; under `CCOc1cc(C(=O)Nc2cccc(OC)n2)cn2cc(C3CCCOC3)nc12` (centres unmarked) [Example 53, 8-Ethoxy-N-(6-methoxypyridin-2-yl)-2-(tetrahydro-2H-pyran-3-yl)imidazo[1,2-a]pyridine-6-carboxamide], 0.0352 µM.

With `COc1cc2nc(C3CCOCC3)cn2cc1C(=O)Nc1cccc2ccnn12` [Example 57, 7-Methoxy-N-(pyrazolo[1,5-a]pyridin-7-yl)-2-(tetrahydro-2H-pyran-4-yl)imidazo[1,2-a]pyridine-6-carboxamide], it took 0.0041 µM to reach half-maximal inhibition (IC50). Compared with the last molecule, the IC50 is about 8.6-fold lower.

The assay is the same for the next values; noted with them: IRAK4 Biochemical Assay (1 mM ATP, 2 h) IC50 (μM), 1 mM ATP, 2 h, 100 pM IRAK4.
`C[C@@]12CC[C@@](c3cn4cc(C(=O)Nc5ccccn5)nc(OC5CCC5)c4n3)(CO1)C2` (single isomer, unassigned) [Example 622] showed a half-maximal inhibitory concentration (IC50) of 0.004 µM. On the same count and under the same terms, then `COc1cc2nc(C34CC(OC)(C3)C4)cn2cc1C(=O)Nc1ccccn1` [Example 2], with 0.0586 µM. On the same count and under the same terms, then `COc1cc2nc(C34CC(F)(C3)C4)cn2cc1C(=O)Nc1ccccn1` [Example 3], with 0.217 µM; and `COc1cc2nc(C34COC(CF)(C3)C4)cn2cc1C(=O)Nc1ccccn1` [Example 5], with 0.0721 µM. On the same count and under the same terms, under `COc1cccc(NC(=O)c2cn3cc(C45COC(CF)(C4)C5)nc3cc2OC)n1` [Example 7] stands 0.0166 µM.

`COc1cccc(NC(=O)c2cn3cc(C4C5CCOCC54)nc3cc2OC)n1` (centres unmarked) [Example 25] yielded an IC50 of 0.0031 µM.

`COc1cccc(NC(=O)c2cn3cc(C45CC(C)(CO4)C5)nc3cc2OC)n1` [Example 26] yielded an IC50 of 0.124 µM. The same measure, in the same setting: then `COc1cccc(NC(=O)c2cn3cc(C45CCC(C)(C4)OC5)nc3cc2OC)n1` (centres unmarked) [Example 27], with 0.0198 µM; and `COc1cccc(NC(=O)c2cn3cc(C45CC(C)(C4)OC54COC4)nc3cc2OC)n1` [Example 28], with 0.0969 µM. `COc1cccc(NC(=O)c2cn3cc(C45CCC(C)(CC4)OC5)nc3cc2OC)n1` [Example 29] displayed an IC50 of 0.0041 µM. For `COc1cccc(NC(=O)c2cn3cc([C@@]45COC[C@@H]4C5)nc3cc2OC)n1` [Example 30], the 50% inhibitory concentration (IC50) was found to be 0.0735 µM. This IC50 lies about 18-fold higher than the previous one.

In the case of `CCc1cccc(NC(=O)c2cn3cc(C45COC(CF)(C4)C5)nc3cc2OC)n1` [Example 58, N-(6-ethylpyridin-2-yl)-2-(1-(fluoromethyl)-2-oxabicyclo[2.1.1]hexan-4-yl)-7-methoxyimidazo[1,2-a]pyridine-6-carboxamide trifluoroacetate], it took 0.0105 µM to reach half-maximal inhibition (IC50). This IC50 lies about 7-fold lower than the previous one. In turn, `CCc1cccc(NC(=O)c2cn3cc(C4CCOCC4)nc3cc2OC)n1` [Example 59] displayed an IC50 of 0.0137 µM. This IC50 and that of the molecule before are within 1.5-fold of each other. `CCc1cccc(NC(=O)c2cn3cc(C4CC(OC)C4)nc3cc2OC)n1` (centres unmarked) [Example 61] gave an IC50 of 0.0351 µM. Still for that read-out and setting: under `CCc1cccc(NC(=O)c2cn3cc(C4CC5(CCOC5)C4)nc3cc2OC)n1` (centres unmarked) [Example 62] stands 0.0038 µM.

By IC50 is commonly meant the concentration needed to halve the response being measured. A higher IC50 goes with weaker potency.
